These results are taken from patent US20060079575A1, “Gamma-butyrolactone compound and pharmaceutical composition thereof” (priority 2003, published 2006).

For test [1], the system named is telomerase. Description: Inhibition of telomerase activity in Paclitaxel-resistant tumor cells. To be noted: Paclitaxel-resistant tumor cells (A549-T12). In kind it is cell-based, human. An excerpt: Furthermore, after crude Bupleurum scorzonerifolium is processed according to the above-mentioned manufacturing method, its tumor inhibitory effect is more prominent.

Test [2] relates to A549 cells. Description: Cell cycle by flow cytometry, A549. The test is classed as cell-based, human. An excerpt: FIGS. 2A through to FIG. 2D illustrate the cell cycle peak change detected using flow cytometry for A549 cells treated with Bupleurum scorzonerifolium extracts: acetone extract (BS-AE), methanol extract (BS-ME) and water extract (BS-WE) isolated according to the extracting method of the invention;
FIG. 4 is a bar chart showing cell cycle changes detected using flow cytometry for A549 cells untreated, treated with BS-AE, isochaihulactone (BS-8), and Paclitaxel;
Furthermore, flow cytometry is employed to observe the changes in cell cycle before and after the addition of different extracts from Bupleurum scorzonerifolium to A549 cells. In FIGS. 2A through to 2D, X-axis represents chromosome numbers (2N, 4N, etc.) of tumor cells in contact with the antibody, Y-axis represents the fluorescent brightness of Fluorescein Isothiocyanate (FITC). […] This effect is most significant for BS-AE.

In test [3] the test system is J5 (hepatocellular carcinoma). Description: MTT cytotoxicity assay, J5. To be noted: Homo sapiens, read-out: IC 50, J 5; heading: IC 50, J 5; 24 hr. In kind it is cell-based. An excerpt:
(§1) MTT assay is used to test the cytotoxic effect of BS-AE, BS-ME, BS-HE, BS-CE and BS-WE on human lung cancer cell line A549. […] According to the extraction process “BS-AE→BS-MWE→BS-CE” all of the crude extracts contain tumor inhibitory components. In order to further isolate the tumor inhibitory components from Bupleurum scorzonerifolium extract, a “Chromatography” step is further employed to isolate the BS-CE.
(§2) It is known from the experimental result of this invention, BS-AE containing the γ-butyrolactone compound and pharmaceutical composition thereof have significant growth inhibitory effect on human hepatoma, lung cancer, ovarian cancer, breast cancer, malignant glioblastoma and colorectal carcinoma cells.

Test [4] concerns MCF 7 (breast cancer cell line). Nature of the test: MTT cytotoxicity assay, MCF 7. The conditions noted are these: Homo sapiens, MCF7, read-out: IC 50, MCF 7; 24 hr. The test is classed as cell-based.
Excerpt: as §1, §2

For test [5], the system named is A549 (lung cancer cell line). Nature of the test: MTT cytotoxicity assay, A549. To be noted: 24 hr. In kind it is cell-based, human.
Excerpt: as §1, §2

Test [6] deals with Hep G2 (Hepatocellular carcinoma). Nature of the test: MTT cytotoxicity assay, Hep G2. In kind it is cell-based. To be noted: Homo sapiens, HepG2, read-out: IC 50, HepG2; heading: IC 50, HepG2; 24 hr.
Excerpt: as §1, §2

The test system of test [7] is A549-T12 cells. Nature of the test: MTT assay A549-T12, 24 and 48 hrs (FIG. 10). The test is classed as cell-based, human. The conditions noted are these: Paclitaxel-resistant lung cancer cell line. On the procedure: FIGS. 10A through to 10C illustrate results of MTT assays for A549-T12 cells treated with BS-AE, isochaihulactone (BS-8), and isokaerophyllin (BS-15) respectively for 24 hrs and 48 hrs;
Besides, after BS-AE, BS-8, and BS-15 are added to Paclitaxel-resistant lung cancer cell line for 48 hours, viability ratio of tumor cells is reduced as illustrated in FIGS. 10A through to 10C. So, in view of IC50 or ED50, the cytotoxic effect of purified chaihulactone analog on the tumor cells is […] than BS-AE. […] Furthermore, a substantially low dose (1.5 μg/ml) of the compound is all that requires to induce apoptosis for the tumor cells.

Test [8] deals with A549-T12 cells. Nature of the test: Annexin V-FLOUS/PI flow cytometry (apoptosis), A549-T12. The conditions noted are these: A549-T12, 8 μg/ml, 48 hours; untreated 6.8%. In kind it is cell-based, human. An excerpt:
FIGS. 9A through to 9D are cytograms showing the extent of cell apoptosis detected using flow cytometry for Paclitaxel-resistant human lung cancer cell lines (A549-T12 cells) either untreated, treated with BS-AE, isochalihulactone (BS-8), or isokaerophyllin ([…] fluorescence intensity of tumor cells bound with Annexin V-FLOUS antibodies; and Y-axis indicates fluorescence intensity of tumor cells bound with PI antibodies);
The following embodiments are described with Paclitaxel-resistant tumor cell A549-T12 (passage cultured from lung cancer cell line A549 cells with low concentration of Paclitaxel) as an example to test the effect of BS-AE and its pure compounds BS-8 and BS-15 (these represent isochaihulactone and chaihulactone analogues) on A549-T12 cells. Flow cytometry, drug toxicity test, and histological sections are adopted to evaluate cytotoxic effect of the γ-butyrolactone compound and pharmaceutical composition thereof on Paclitaxel-resistant tumor cells.
FIGS. 9A through to 9D are flow cytometry results illustrating a comparison of the change of Annexin V-FLOUS and PI for untreated group with that of the group treated with 100 nM of Paclitaxel, 30 μg/ml BS-AE, 8 μg/ml BS-8 and 8 μg/ml BS-15 to A549-T12. […]

For test [9], the system named is telomerase. Nature of the test: Telomerase activity of treated tumor cell lines. The test is classed as cell-based. The conditions noted are these: cell lines of human lung cancer, hepatoma, malignant glioblastoma, colorectal carcinoma. As for the experimental part: A prominent cytotoxic effect was shown when the γ-butyrolactone heterocyclic compound and pharmaceutical composition thereof are added to the Paclitaxel-resistant tumor cell lines, indicating Bupleurum scorzonerifolium indeed contain active components for inhibiting tumor growth. The active components for inhibiting tumor growth refer to the novel compound and pharmaceutical composition thereof having a γ-core and having a Z or E configuration for its carbon 2(5) location at the core.

The subject of test [10] is OVCAR-3 (ovarian cancer cell line). Description: MTT cytotoxicity assay, OVCAR-3. In kind it is cell-based. The conditions noted are these: Homo sapiens, OVCAR-3, read-out: IC 50, OVCAR-3; 24 hr.
Excerpt: as §1, §2

For a further test, the system named is p21 and p53. Description: Western blotting of p21 and p53, A549. The test is classed as cell-based, human. An excerpt: FIG. 5 is a western blot analysis diagram showing the amount of tumor suppressors: p21 and p53 expressed in A 549 cells either untreated (B), treated with DMSO (D) or BS-AE, BS-ME, BS-WE, isochaihulactone (BS-1), or chaihulactone (BS-2) for 1 day (1D) or 3 days (3D);

For test [11], the system named is HT29 (colon cancer cell line). Nature of the test: MTT cytotoxicity assay, HT29. In kind it is cell-based, human. The conditions noted are these: 24 hr.
Excerpt: as §1, §2

A further test has as its system β-tubulin. Description: Western blot of soluble and particular β-tubulin, A549. The test is classed as cell-based, human. The conditions noted are these: A549, FIG. 7. An excerpt: FIG. 7 is a western blot analysis diagram showing expression of soluble (S) and particular (P) form of β-tubulin in A549 cells either untreated (C), treated with BS-AE, isochaihulactone (BS-8), Paclitaxel, or Vinblastine;
[…] is then used to analyze the change of cytoskeleton of tumor cell lines treated with Bupleurum scorzonerifolium extract. […] Then, a polymerization event is observed before and after the treatment of BS-AE.

In test [12] the test system is A549 cells. Description: Annexin V-FLOUS/PI flow cytometry (apoptosis), A549. The test is classed as cell-based, human. The conditions noted are these: A549, 20 μM, cultured 48 hours; untreated 3.8%. On the procedure: FIGS. 3A through to FIG. 3C are cytograms showing the extent of cell apoptosis detected using flow cytometry for A 549 cells either untreated, treated with 20 μM of isochalihulactone, or 60 μg/ml of BS-AE and cultured for 48 hrs (wherein X-axis indicates fluorescence intensity of tumor cells bound with Annexin V-FLOUS antibodies; and Y-axis indicates fluorescence intensity of tumor cells bound with PI antibodies);
In the example of using cell line A549, untreated A549 cells, A549 cells treated with 20 μM of Isochaihulactone and A549 cells treated with 60 μg/ml of BS-AE are cultured 48 hours before utilizing flow cytometry to detect the staining results between Annexin V-FLOUS and PI. In FIGS. 3A through to 3C, X-axis represents the fluorescent brightness of tumor cells with antibody Annexin V-FLOUS, and Y-axis represents the fluorescent brightness of tumor cells with antibody PI.

Test [13] has as its system A549-T12 (taxol resistant A549 subline). Description: MTT cytotoxicity assay, A549-T12. In kind it is cell-based, human. To be noted: 24 hr.
Test [14] has as its system DBTRG-05MG (glioblastoma multiforme). Nature of the test: MTT cytotoxicity assay, DBTRG-05MG. The test is classed as cell-based. The conditions noted are these: Homo sapiens, read-out: IC 50, DBTRG-05MG, 24 hr.
Excerpt: as §1, §2

The test system of test [15] is WI-38 (embryonic fibroblast cell line). Description: MTT cytotoxicity assay, WI-38. To be noted: 24 hr. In kind it is cell-based.

Values after ≈ are worked out from the molar mass of the structure shown. Like-named read-outs stand apart in the source and are kept apart here.

`COc1cc(/C=C2\C(=O)OC[C@@H]2Cc2ccc3c(c2)OCO3)cc(OC)c1OC` [BS-8, Isochaihulactone]: the “effective concentration for inhibiting telomerase activity” value in the test with telomerase [1] is given as “about 1.2 μg/mL”. Further, the cell cycle effect entry with A549 cells [2] is on record as “arrest at G2/M stage”. Also, the IC50 was determined as 3.5 ± 0.7 µg/mL (≈ 8.78 µM) in test [3]; 8 ± 0.8 µg/mL (≈ 20.1 µM) in test [4]; 8 ± 0.8 µg/mL in [5] (Homo sapiens, A549, read-out: IC 50, A549); 5.5 ± 0.5 µg/mL (≈ 13.8 µM) in test [6]; 7.2 ± 1.2 µg/mL (≈ 18.1 µM) in [10]; 5 ± 0.8 µg/mL in test [11] (Homo sapiens, HT-29, read-out: IC 50, HT 29, heading: IC 50, HT 29). Besides, the IC50 in test [13] (Homo sapiens, A549, read-out: IC 50, A549-T12, heading: IC 50, A549-T12) was determined as 1.7 ± 0.3 µg/mL; in test [14], 7.5 ± 1 µg/mL (≈ 18.8 µM). In addition, the “viability ratio of tumor cells” value in the test with A549-T12 cells [7] is listed as “reduced”. The “tumor cells coupled to Annexin V” value with A549-T12 cells [8] is recorded as 30.6%; in the test with A549 cells [12], 32.7%. Moreover, the “reduction of telomerase activity vs untreated control” value in the test on telomerase [9] is listed as 5 times. For the same compound, the “expression level of tumor suppressor p21 and p53” value in the test on p21 and p53 was “significant increase”. In addition, in the test on β-tubulin, the “particular form (polymerized β-microtubule)” value is “increases”. Besides, the “soluble form (non-polymerized β-microtubule)” value with β-tubulin is recorded as “significantly diminishes”.

Turning to `COc1ccc(/C=C2\C(=O)OC[C@@H]2Cc2ccc3c(c2)OCO3)cc1OC` [BS-15, Isokaerophyllin], in the test on A549-T12 cells [7], the “viability ratio of tumor cells” value is listed as “reduced”. Further, the “tumor cells coupled to Annexin V” value in the test on A549-T12 cells [8] amounted to 23.1%.

Take `N.N.[Cl][Pt][Cl]` [Cisplatin, cisdiammine dichloroplatinum]: the “IC 50, A549” value in test [5] turned out to be 17200 ± 2700 µg/mL. Besides, in test [15], the “IC 50, WI 38” value is 21300 ± 4500 µg/mL.

In the case of `COc1cc(/C=C2/C(=O)OC[C@@H]2Cc2ccc3c(c2)OCO3)cc(OC)c1OC` [Component 3, Chaihulactone], the “reduction of telomerase activity vs untreated control” value with telomerase [9] is 5 times. Further, the “expression level of tumor suppressor p21 and p53” value with p21 and p53 is “significant increase”.

As for paclitaxel [Taxol, reference compound], the IC50 was 4 ± 0.6 nM in [5] (Taxol in nM, read-out: IC 50, A549); 3 ± 0.5 nM in [11] (Taxol in nM, read-out: IC 50, HT 29); 20 ± 2.7 nM in test [13] (Taxol in nM, read-out: IC 50, A549-T12).
